According to patent US6903132B2, “Non-peptide GnRH agents, pharmaceutical compositions and methods for their use” (Agouron Pharmaceuticals, Inc., priority 2002, dated 2005):

Tests used:
Experiment in all cases: Radioligand binding assay: inhibition of binding of 125I-GnRH-A to GnRH receptors (membranes)
[1] = molecular target: T1, human GnRH receptors (Homo sapiens, UniProt P30968); conditions: Human GnRH receptor; competition with 125I-GnRH-A; Ki calculated from IC50 (Cheng et al.)
T1 construct: expressed in transfected cells; host or cells: HEK 293
T1 sequence (P30968 1-328): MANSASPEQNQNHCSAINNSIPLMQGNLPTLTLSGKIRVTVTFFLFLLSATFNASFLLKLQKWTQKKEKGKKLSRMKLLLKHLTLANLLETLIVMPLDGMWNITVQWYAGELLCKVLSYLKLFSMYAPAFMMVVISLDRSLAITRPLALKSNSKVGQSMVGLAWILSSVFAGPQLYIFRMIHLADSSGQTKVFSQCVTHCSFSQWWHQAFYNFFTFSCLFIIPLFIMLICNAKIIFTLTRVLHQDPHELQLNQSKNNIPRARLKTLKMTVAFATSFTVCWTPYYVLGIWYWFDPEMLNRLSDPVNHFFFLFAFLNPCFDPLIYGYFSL
Outline: (§1)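 Membranes from HEK 293 expressing mouse or human receptor, or rat pituitaries, incubated 1 h at RT with ~0.04–0.06 nM ¹²⁵I-[des-Gly¹⁰,D-Ala⁶]GnRH ethylamide and competitor (0.1–10,000 nM) in HEPES pH 7.4 with MgCl2, EDTA, BSA. Filtration onto PEI-soaked GF/C filters, scintillation counting; Ki from IC50 by Cheng–Prusoff.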

[2] = molecular target: T2, rat GnRH receptor (Rattus norvegicus, UniProt P30969); conditions: competition with 125I-GnRH-A, Ki calculated from IC50 (Cheng et al.)
T2 construct: rat pituitaries (Pel Freez Biologicals, Rogers, Ark.) are homogenized in buffer A; tissue Pel Freez Biologicals; host or cells: rat pituitaries
T2 sequence (P30969 1-327): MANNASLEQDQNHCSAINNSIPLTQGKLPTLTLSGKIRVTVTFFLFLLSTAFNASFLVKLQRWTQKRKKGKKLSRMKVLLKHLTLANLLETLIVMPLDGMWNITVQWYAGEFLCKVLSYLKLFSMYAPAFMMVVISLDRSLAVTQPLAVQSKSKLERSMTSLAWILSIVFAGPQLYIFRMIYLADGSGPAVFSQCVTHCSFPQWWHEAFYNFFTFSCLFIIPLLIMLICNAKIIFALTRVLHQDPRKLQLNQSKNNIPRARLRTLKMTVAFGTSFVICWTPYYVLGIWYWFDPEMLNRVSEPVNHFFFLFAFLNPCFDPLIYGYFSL
Outline: as §1

[3] = molecular target: T3, mouse GnRH receptors (Mus musculus, UniProt Q01776); conditions: Mouse GnRH receptor; competition with 125I-GnRH-A; Ki calculated from IC50 (Cheng et al.)
T3 construct: expressed in transfected cells; host or cells: HEK 293
T3 sequence (Q01776 1-327): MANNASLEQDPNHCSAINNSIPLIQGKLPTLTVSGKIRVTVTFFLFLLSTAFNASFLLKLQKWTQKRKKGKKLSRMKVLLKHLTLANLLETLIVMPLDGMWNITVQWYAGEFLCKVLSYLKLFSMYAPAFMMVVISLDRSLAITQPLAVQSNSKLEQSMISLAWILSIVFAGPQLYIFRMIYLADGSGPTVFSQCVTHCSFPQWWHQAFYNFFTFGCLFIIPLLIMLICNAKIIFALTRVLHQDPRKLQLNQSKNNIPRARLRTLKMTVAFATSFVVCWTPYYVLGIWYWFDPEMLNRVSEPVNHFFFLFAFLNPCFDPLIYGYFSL
Outline: as §1

Row | SMILES | Ki [1] [nM] | Ki [2] [nM] | Ki [3] [nM]
1 | Cc1cc(NNC(=O)c2ccc(Oc3cc4c(cc3Cl)NCCC4(C)C)o2)nc2c1c(C)nn2C [Example I26, 5-(7-Chloro-4,4-dimethyl-1,2,3,4-tetrahydro-quinolin-6-yloxy)-furan-2-carboxylic acid N′-(1,3,4-trimethyl-1H-pyrazolo[3,4-b]pyridin-6-yl)-hydrazide] | 8.3 | 25 | 14
2 | Cc1ccc(C(C)(C)C)cc1Oc1ccc(C(=O)NNc2ccc3ccccc3n2)o1 [Example I17, 5-(5-tert-Butyl-2-methyl-phenoxy)-furan-2-carboxylic acid N′-quinolin-2-yl-hydrazide] | 70 | 50 | 43
3 | Cc1cc(C(F)(F)F)cc(NNC(=O)c2ccc(Cc3cc4c(cc3C)C(C)(C)CCC4(C)C)o2)n1 [Example C13, N′-[6-methyl-4-(trifluoromethyl)-2-pyridinyl]-5-[(3,5,5,8,8-pentamethyl-5,6,7,8-tetrahydro-2-naphthalenyl)methyl]-2-furohydrazide] | 220 | 240 | 130
4 | Cc1cc(C)c(-c2ccccc2)cc1Cc1ccc(C(=O)NNc2cc(C)c3c(C)nn(C)c3n2)o1 [Example J18, 5-[(4,6-dimethyl[1,1′-biphenyl]-3-yl)methyl]-N′-(1,3,4-trimethyl-1H-pyrazolo[3,4-b]pyridin-6-yl)-2-furohydrazide] | 170 | 290 | 480
5 | Cc1cc(Cl)c(C(C)C)cc1Oc1ccc(C(=O)NNc2cc(C)c3c(C)nn(C)c3n2)o1 [Example I23, 5-(4-Chloro-5-isopropyl-2-methyl-phenoxy)-furan-2-carboxylic acid N′-(1,3,4-trimethyl-1H-pyrazolo[3,4-b]pyridin-6-yl)-hydrazide] | 30 | 370 | 22
6 | Cc1sc2c(c1Cc1ccc(C(=O)NNc3cc(C)c4c(C)nn(C)c4n3)o1)C(C)(C)CCC2(C)C [Example J28, 5-(2,4,4,7,7-Pentamethyl-4,5,6,7-tetrahydro-benzo[b]thiophen-3-ylmethyl)-furan-2-carboxylic acid N′-(1,3,4-trimethyl-1H-pyrazolo[3,4-b]pyridin-6-yl)-hydrazide] | 30 | 245 | 130
7 | COc1ccc(C(C)(C)C)cc1Cc1ccc(C(=O)NNc2cc(C)c3c(C)nn(C)c3n2)o1 [Example J19, 5-[5-(tert-butyl)-2-methoxybenzyl]-N′-(1,3,4-trimethyl-1H-pyrazolo[3,4-b]pyridin-6-yl)-2-furohydrazide] | 140 | 230 | 320
8 | Cc1cc2c(cc1Oc1ccc(C(=O)NNc3cc(C)c4c(C)nn(C)c4n3)o1)C(c1ccccc1)CCC2 (stereo not drawn) [Example I18, 5-(3-Methyl-8-phenyl-5,6,7,8-tetrahydro-naphthalen-2-yloxy)-furan-2-carboxylic acid N′-(1,3,4-trimethyl-1H-pyrazolo[3,4-b]pyridin-6-yl)-hydrazide] | 58 | 154 | 59
9 | Cc1cc2c(cc1Cc1ccc(C(=O)NNc3ncccc3C(F)(F)F)o1)C(C)(C)CCC2(C)C [Example C11, 5-[(3,5,5,8,8-Pentamethyl-5,6,7,8-tetrahydro-2-naphthalenyl)methyl]-N′-[3-(trifluoromethyl)-2-pyridinyl]-2-furohydrazide] | 63 | 84 | 67
10 | COc1c(Oc2ccc(C(=O)NNc3cc(C)c4c(C)nn(C)c4n3)o2)c(C)cc2c1C(C)(C)CCC2(C)C [Example I28, 5-(1-Methoxy-3,5,5,8,8-pentamethyl-5,6,7,8-tetrahydro-naphthalen-2-yloxy)-furan-2-carboxylic acid N′-(1,3,4-trimethyl-1H-pyrazolo[3,4-b]pyridin-6-yl)-hydrazide] | 0.3 | 4.2 | 2.6
11 | Cc1cc2c(cc1Oc1ccc(C(=O)NNc3ccc4ccccc4n3)o1)C(C)(C)CC(C)C2(C)C (stereo not drawn) [Example I20, 5-(3,5,5,6,8,8-Hexamethyl-5,6,7,8-tetrahydro-naphthalen-2-yloxy)-furan-2-carboxylic acid N′-quinolin-2-yl-hydrazide] | 3.8 | 7.3 | 4
12 | Cc1cc2c(cc1Oc1ccc(C(=O)NNc3cc(C)c4c(C)nn(C)c4n3)o1)C(C)(C)OC2 [Example N2, 5-(3,3,6-Trimethyl-1,3-dihydro-isobenzofuran-5-yloxy)-furan-2-carboxylic acid N′-(1,3,4-trimethyl-1H-pyrazolo[3,4-b]pyridin-6-yl)-hydrazide] | 28 | 86 | 22
13 | Cc1cc2c(c(Br)c1Oc1ccc(C(=O)NNc3cc(C)c4c(C)nn(C)c4n3)o1)C(C)(C)CCC2(C)C [Example I8, 5-(1-Bromo-3,5,5,8,8-pentamethyl-5,6,7,8-tetrahydro-naphthalen-2-yloxy)-furan-2-carboxylic acid N′-(1,3,4-trimethyl-1H-pyrazolo[3,4-b]pyridin-6-yl)-hydrazide] | 6.3 | 29 | 16
14 | Cc1cc(NNC(=O)c2ccc(Cc3cc4c(cc3Cl)C(C)(C)CCC4(C)C)o2)nc2c1c(C)nn2C [Example C4, 5-[(3-chloro-5,5,8,8-tetramethyl-5,6,7,8-tetrahydro-2-naphthalenyl)methyl]-N′-(1,3,4-trimethyl-1H-pyrazolo[3,4-b]pyridin-6-yl)-2-furohydrazide] | 1.3 | 22 | 8.2
15 | COc1c(Oc2ccc(C(=O)NNc3cc(C)c4c(C)nn(C)c4n3)o2)c(C)cc2c1C(C)(C)CCC2 [Example I10, 5-(1-Methoxy-3,8,8-trimethyl-5,6,7,8-tetrahydro-naphthalen-2-yloxy)-furan-2-carboxylic acid N′-(1,3,4-trimethyl-1H-pyrazolo[3,4-b]pyridin-6-yl)-hydrazide] | 146 | 230 | 160
16 | Cc1cc2c(cc1Oc1ccc(C(=O)NNc3cc(C)c4c(C)nn(C)c4n3)o1)C(C)(C)C(C)C2(C)C (stereo not drawn) [Example M4, 5-(1,1,2,3,3,6-Hexamethyl-indan-5-yloxy)-furan-2-carboxylic acid N′-(1,3,4-trimethyl-1H-pyrazolo[3,4-b]pyridin-6-yl)-hydrazide] | 1.8 | 3.9 | 3.7
17 | Cc1cc2c(cc1Oc1ccc(C(=O)NNc3cc(C)c4c(C)nn(C)c4n3)o1)C(C(C)C)C(C)C2(C)C (stereo not drawn) [Example I2, 5-(3-lsopropyl-1,1,2,6-tetramethyl-indan-5-yloxy)-furan-2-carboxylic acid N′-(1,3,4-trimethyl-1H-pyrazolo[3,4-b]pyridin-6-yl)-hydrazide] | 2.4 | 4.2 | 3.6
18 | Cc1cc(NNC(=O)c2ccc(Oc3ccc4c(c3)C(C)(C)CCC4(C)C)o2)nc2c1c(C)nn2C [Example F4, 5-[(5,5,8,8-tetramethyl-5,6,7,8-tetrahydro-2-naphthalenyl)oxy]-N′-(1,3,4-trimethyl-1H-pyrazolo[3,4-b]pyridin-6-yl)-2-furohydrazide] | 126 | 384 | 450
19 | Cc1cc2c(c(O)c1Oc1ccc(C(=O)NNc3cc(C)c4c(C)nn(C)c4n3)o1)C(C)(C)CCC2(C)C [Example I29, 5-(1-Hydroxy-3,5,5,8,8-pentamethyl-5,6,7,8-tetrahydro-naphthalen-2-yloxy)-furan-2-carboxylic acid N′-(1,3,4-trimethyl-1H-pyrazolo[3,4-b]pyridin-6-yl)-hydrazide] | 49 | 64 | 58
20 | Cc1cc2c(cc1Oc1ccc(C(=O)NNc3cc(C)c4c(C)nn(C)c4n3)o1)C(C)(C)CCC2 [Example I21, N′-(1,3,4-trimethyl-1H-pyrazolo[3,4-b]pyridin-6-y)-5-[(3,8,8-trimethyl-5,6,7,8-tetrahydro-2-naphthalenyl)oxy]-2-furohydrazide] | 4.2 | 22 | 5
